Data from the METLIN SMRT retention time set (Domingo-Almenara et al. 2019).

Experiment: gradient 5% acetonitrile 3 min, to 50% in 2 min, to 85% in 15 min, held 3 min, 100 µL/min
Settings: column: Zorbax Extend-C18 2.1 x 50 mm; eluents: water / acetonitrile, 0.1% formic acid
Outline: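 Retention times come from adduct peaks that were picked computationally and then checked by hand. The standards, pure and pooled in mixtures of ~100 molecules, were run on a Zorbax Extend-C18 column (2.1 × 50 mm, 1.8 μm) at 100 μL/min with water and acetonitrile, each with 0.1% formic acid. Detection was by quadrupole time-of-flight mass spectrometry in positive and negative ionization mode, with a dead volume of 40 μL and a dwell volume of 900 μL.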

| SMILES | RP-LC retention time |
| --- | --- |
| CCNC(=O)Nc1ccc(OCC(=O)NC2CCN(Cc3ccccc3)CC2)nc1 | 584 s |
| CCCN(C)c1nccn2c(=O)n(CC(=O)Nc3ccc(Cl)cc3F)nc12 | 735 s |
| O=C(CSc1nnc2c3sc(N4CCCC4)nc3ncn12)Nc1ccc(F)c(F)c1 | 863 s |
| Cc1ccc(CNC(=O)C2(C)CN(S(C)(=O)=O)CC(=O)N2c2ccc(C)c(Cl)c2)cc1 (configuration not stated) | 874 s |
| CCn1ncc(N2CCC(NC(=O)C(C)(C)C)CC2)cc1=O | 576 s |
| COCCCNC(=O)C1CCN(c2cncnc2N(C)C)CC1 | 568 s |
| CCC1=NS(=O)(=O)c2cccnc2N1c1ccc(Br)c(C)c1 | 986 s |
| O=C(Nc1ccc(F)c(Cl)c1)C1CCN(S(=O)(=O)c2ccc3[nH]c(=O)ccc3c2)CC1 | 812 s |
| CCOc1cc(CNC(=O)C2CCCN(c3nc4ccccc4n(CC)c3=O)C2)ccc1OC (configuration not stated) | 936 s |
| Cc1cc(F)ccc1NC(=O)C1CCc2nc(N3CCOCC3)ncc2C1 (configuration not stated) | 735 s |
| COc1ccc(-n2c(=O)c(C(=O)Nc3ccc(F)c(Cl)c3)c(O)c3cccnc32)cc1 | 1370 s |
| CS(=O)(=O)NCCS(=O)(=O)N1CCN(c2ccccc2F)CC1 | 723 s |
| COc1ccc(S(=O)(=O)N2C[C@@H]3C[C@H](NC(=O)c4ccccc4)[C@H]2C3)cc1Cl | 907 s |
| CC(=O)Nc1ccc(S(=O)(=O)NC2(c3nc(C4CC4)no3)CCCCC2)cc1Cl | 813 s |
| CC(C)CCN1C(=O)CN(S(=O)(=O)c2ccccc2)CC1(C)C(=O)NCc1ccc(F)cc1 (configuration not stated) | 1030 s |
| CCOc1ccc2nc(NC(=O)CCN3C(=O)C4C5C=CC(C5)C4C3=O)sc2c1 (configuration not stated) | 834 s |
| COc1ccc(NC(=O)Nc2c(-c3cccc(C)c3)nc3ccccn23)cc1 | 658 s |
| CC(C)CN1C(=O)c2ccccc2C(C(=O)NCc2cccnc2)C12CCCCC2 (configuration not stated) | 659 s |
| COC1CCOC2(CCN(C(=O)c3sccc3C)CC2)C1 (configuration not stated) | 732 s |

| SMILES | RP-LC retention time |
| --- | --- |
| COc1cccc(Nc2cc(C(=O)N3CCSCC3)nc3ccc(C)cc23)c1 | 694 s |
| CCCCOc1ccc(CNC(=O)C2CCN(Cc3cn(CC)c4ccc(OC)cc34)CC2)cc1 | 842 s |
| CCOc1ccccc1N1CCN(c2cc(C(=O)O)c3cc(NC(=O)C4CCC4)ccc3n2)CC1 | 864 s |
| CC1CN=C2C=C(N3CCN(C(=O)NCc4cccc(F)c4)CC3)N=CN21 (configuration not stated) | 605 s |
| CC(C)CN1CCn2cc(S(=O)(=O)Nc3ccc(F)c(F)c3)cc2C1=O | 842 s |
| CCCn1c(=O)sc2cc(S(=O)(=O)N3CCC(C(=O)NC)CC3)ccc21 | 730 s |
| COc1ccc(OC)c(-c2csc(-c3nnn(-c4ccc(Cl)cc4)c3N)n2)c1 | 1200 s |
| COc1ccccc1CCc1nc(-c2ccc3oc(C)nc3c2)no1 | 1210 s |
| Cc1csc(-c2cc(S(=O)(=O)NCc3cccs3)c(C)n2C)n1 | 924 s |
| CCc1ccc(NC(=O)Nc2cnn(-c3ncc(N4CCCC4)cn3)c2)cc1 | 880 s |
| CCN1C(=O)COc2ccc(-c3noc(Cc4ccc(OC)c(OC)c4)n3)cc21 | 923 s |
| CCOc1ccccc1NC(=O)NCCc1cn(C)c2ncccc12 | 733 s |
| Cc1cccc(OCc2nc(-c3ccnc(N4CCCC4)c3)no2)c1 | 725 s |
| CNC(=O)c1cnc(-c2ccc(Cl)cc2)n(CC(=O)N2CCc3ccccc32)c1=O | 997 s |
| COCCCNC(=O)C1c2ccccc2CCN1C(C)=O (configuration not stated) | 641 s |
| O=c1onc2cnc3ccccc3n12 | 822 s |
| COC(=O)c1c(C)[nH]c(C(=O)N2CCCC(C(=O)NCc3ccc(OC)cc3OC)C2)c1C (configuration not stated) | 755 s |
| O=C(NCc1csc(C2CCCN(C(=O)C3CCCCC3)C2)n1)C1CC1 (configuration not stated) | 748 s |
